Laboratory results published in ChEMBL document CHEMBL4699570, “Design, synthesis and biological evaluation of novel c-Met/HDAC dual inhibitors” (Bioorg Med Chem Lett, 2020).

What was measured:
MCF7 = test: Antiproliferative against human MCF-7 cells assessed as reduction in cell viability by MTT assay; type: functional, cell-based
A549 = test: Antiproliferative against human A549 cells assessed as reduction in cell viability by MTT assay; type: functional, cell-based
Histone deacetylase 1 [1] = biological target: T1, Histone deacetylase 1 (Homo sapiens, UniProt Q13547); details: dose 100.0 nM
T1 sequence (Q13547 whole entry): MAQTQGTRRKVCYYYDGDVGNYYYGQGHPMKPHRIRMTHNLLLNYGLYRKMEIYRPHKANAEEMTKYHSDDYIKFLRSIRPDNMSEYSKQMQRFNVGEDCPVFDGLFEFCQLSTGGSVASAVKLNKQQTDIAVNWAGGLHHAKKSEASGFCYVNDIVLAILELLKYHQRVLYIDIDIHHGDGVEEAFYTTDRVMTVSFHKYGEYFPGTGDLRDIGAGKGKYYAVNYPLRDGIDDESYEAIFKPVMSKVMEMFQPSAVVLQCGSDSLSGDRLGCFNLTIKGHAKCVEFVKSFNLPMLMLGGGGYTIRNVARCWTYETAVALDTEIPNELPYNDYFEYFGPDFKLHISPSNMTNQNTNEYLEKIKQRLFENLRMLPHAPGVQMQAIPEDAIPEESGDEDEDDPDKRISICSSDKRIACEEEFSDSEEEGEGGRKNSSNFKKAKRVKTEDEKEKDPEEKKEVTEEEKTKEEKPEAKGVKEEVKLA
Description: Inhibition of HDAC1 (unknown origin) at 100 nM relative to control

[2] = biological target: T2, Hepatocyte growth factor receptor (Homo sapiens, UniProt P08581); details: dose 100.0 nM
T2 sequence (P08581 whole entry): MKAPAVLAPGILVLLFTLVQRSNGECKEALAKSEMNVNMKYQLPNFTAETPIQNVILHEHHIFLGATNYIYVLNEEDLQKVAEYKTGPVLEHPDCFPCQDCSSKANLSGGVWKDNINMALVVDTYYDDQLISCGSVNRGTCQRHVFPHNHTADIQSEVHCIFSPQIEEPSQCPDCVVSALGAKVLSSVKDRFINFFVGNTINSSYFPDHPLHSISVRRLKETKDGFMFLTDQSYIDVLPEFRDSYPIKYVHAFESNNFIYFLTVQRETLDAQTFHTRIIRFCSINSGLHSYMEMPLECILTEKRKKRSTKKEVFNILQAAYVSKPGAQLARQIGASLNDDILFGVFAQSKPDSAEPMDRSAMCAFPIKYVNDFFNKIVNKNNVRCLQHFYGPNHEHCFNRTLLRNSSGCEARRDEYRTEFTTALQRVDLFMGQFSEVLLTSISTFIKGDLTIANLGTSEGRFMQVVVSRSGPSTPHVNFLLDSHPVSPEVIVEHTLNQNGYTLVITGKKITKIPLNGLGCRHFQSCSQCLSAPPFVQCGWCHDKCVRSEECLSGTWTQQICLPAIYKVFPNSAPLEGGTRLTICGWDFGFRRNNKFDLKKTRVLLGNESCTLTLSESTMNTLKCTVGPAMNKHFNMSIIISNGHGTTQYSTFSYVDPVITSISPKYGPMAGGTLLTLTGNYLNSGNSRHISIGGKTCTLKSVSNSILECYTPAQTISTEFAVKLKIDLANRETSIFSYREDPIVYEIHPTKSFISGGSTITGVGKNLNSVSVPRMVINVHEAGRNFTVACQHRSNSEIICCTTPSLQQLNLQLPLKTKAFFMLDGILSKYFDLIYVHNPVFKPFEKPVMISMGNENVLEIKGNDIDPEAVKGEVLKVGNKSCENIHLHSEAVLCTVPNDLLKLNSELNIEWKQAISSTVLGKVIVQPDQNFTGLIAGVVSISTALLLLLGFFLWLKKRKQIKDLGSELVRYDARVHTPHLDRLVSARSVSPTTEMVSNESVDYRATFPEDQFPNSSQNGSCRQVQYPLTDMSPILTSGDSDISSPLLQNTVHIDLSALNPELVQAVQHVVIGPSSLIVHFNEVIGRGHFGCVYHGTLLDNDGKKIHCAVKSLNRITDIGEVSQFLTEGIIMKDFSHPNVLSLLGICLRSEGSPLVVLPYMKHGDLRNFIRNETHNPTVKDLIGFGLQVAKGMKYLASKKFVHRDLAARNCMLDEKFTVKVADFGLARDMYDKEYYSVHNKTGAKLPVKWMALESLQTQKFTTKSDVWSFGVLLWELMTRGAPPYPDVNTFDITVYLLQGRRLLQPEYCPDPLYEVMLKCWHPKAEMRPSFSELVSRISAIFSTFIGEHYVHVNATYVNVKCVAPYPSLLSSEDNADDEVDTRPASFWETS
Description: Inhibition of c-MET (unknown origin) at 100 nM relative to control

Histone deacetylase 1 [3] = biological target: T1, Histone deacetylase 1; test: Inhibition of HDAC1 (unknown origin)
[4] = biological target: T2, Hepatocyte growth factor receptor; test: Inhibition of c-MET (unknown origin)

SMILES	IC50 (MCF7) [µM]	IC50 (A549) [µM]	inhibition (Histone deacetylase 1 [1]) [%]	inhibition [2] [%]	IC50 (Histone deacetylase 1 [3]) [µM]	IC50 [4] [µM]
COc1cc2c(Oc3ccc(NC(=O)N/N=C/c4ccc(F)cc4)cc3)ccnc2cc1OCCCCCCC(=O)NO	1.36	4.92	56.1	24.2	–	–
COc1cc2nccc(Oc3ccc(NC(=O)C4(C(=O)Nc5ccc(F)cc5)CC4)cc3)c2cc1OC [CABOZANTINIB]	5.4	7.21	20.9	–	–	–
COc1ccccc1NC(=O)Nc1ccc(Oc2ccnc3cc(OCCCCCCC(=O)NO)c(OC)cc23)cc1	6.28	16.2	–	31.9	–	–
COc1cc2c(Oc3ccc(NC(=O)Nc4ccc(C)cc4C)cc3)ccnc2cc1OCCCCCCC(=O)NO	3.43	5.49	26.4	44.7	–	–
COc1cc2c(Oc3ccc(NC(=O)NNC(=O)c4cccc(C)c4)cc3)ccnc2cc1OCCCCCCC(=O)NO	5.83	8.19	67.6	29.9	–	–
COc1cc2c(Oc3ccc(NC(=O)N/N=C/c4ccccc4F)cc3)ccnc2cc1OCCCCCCC(=O)NO	1.61	7.78	10.4	81.5	–	–
COc1cc2c(Oc3ccc(NC(=O)NC4CCCCC4)cc3)ccnc2cc1OCCCCCCC(=O)NO	0.6	0.85	14.1	38	0.0452	0.0214
COc1cc2c(Oc3ccc(NC(=O)Nc4ccc(Cl)c(C(F)(F)F)c4)cc3)ccnc2cc1OCCCCCCC(=O)NO	5.15	5.02	40.9	94.8	–	–
COc1cc2c(Oc3ccc(NC(=O)NCCc4ccccc4)cc3)ccnc2cc1OCCCCCCC(=O)NO	4.12	9.04	88	14.3	–	–
COc1cc2c(Oc3ccc(NC(=O)Nc4cccc(C)c4)cc3)ccnc2cc1OCCCCCCC(=O)NO	1.24	2.01	66.6	25.7	–	–
COc1cc2c(Oc3ccc(NC(=O)Nc4ccccc4C(F)(F)F)cc3)ccnc2cc1OCCCCCCC(=O)NO	1.08	5.28	76.6	28.6	–	–
COc1cc2c(Oc3ccc(NC(=O)Nc4ccccc4F)cc3)ccnc2cc1OCCCCCCC(=O)NO	0.66	0.87	32.1	95.5	0.131	0.0392
COc1cc2c(Oc3ccc(NC(=O)NNC(=O)c4ccccc4)cc3)ccnc2cc1OCCCCCCC(=O)NO	2.45	2.82	34.4	38.5	–	–
COc1cc2c(Oc3ccc(NC(=O)Nc4ccc(C(F)(F)F)cc4Cl)cc3)ccnc2cc1OCCCCCCC(=O)NO	0.5	0.97	28.1	93.1	0.148	0.0412
COc1cc2c(Oc3ccc(NC(=O)NNC(=O)c4ccccc4F)cc3)ccnc2cc1OCCCCCCC(=O)NO	3.6	2.42	28.7	81.4	–	–
COc1cc2c(Oc3ccc(NC(=O)Nc4ccc(OC(F)(F)F)cc4)cc3)ccnc2cc1OCCCCCCC(=O)NO	3.2	3.13	11.7	29.8	–	–
COc1cc2c(Oc3ccc(NC(=O)C4(C(=O)Nc5ccc(F)cc5)CC4)cc3F)ccnc2cc1OCCCN1CCOCC1 [FORETINIB]	0.56	0.91	38.6	–	–	–
COc1cc2c(Oc3ccc(NC(=O)Nc4ccccc4)cc3)ccnc2cc1OCCCCCCC(=O)NO	1.04	1.65	23.1	48	0.075	0.017
COc1cc2c(Oc3ccc(NC(=O)N/N=C/c4ccccc4)cc3)ccnc2cc1OCCCCCCC(=O)NO	0.61	3.7	–	75.9	–	–
COc1cc2c(Oc3ccc(NC(=O)Nc4ccccc4Cl)cc3)ccnc2cc1OCCCCCCC(=O)NO	2.78	1.91	45.2	30.4	–	–
